Assay [1] concerns the target recombinant human Mcl-1 (residues 171-327) / Bim interaction (Homo sapiens (Human), UniProt Q07820). Nature of the assay: biochemical. The class given is binding. The following applies: read-out: Mcl-1 HTRF IC50.
For assay [2], the system named is human multiple myeloma cell line, OPM-2. Nature of the assay: Cell viability assay (OPM-2 10 FBS), CellTiter-Glo. The format is cell-based. The method, boiled down:
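Serially diluted test compounds are incubated 16 h with cells (3000/well) in RPMI 1640 supplemented with 10% FBS. Viability is then measured by luminescence and IC50 calculated by 4-parameter logistic fit.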
In general terms: In ATP-based viability assays light output follows the ATP content of the culture.

Where [3] appears, read: TR-FRET, Mcl-1(171-327) / biotin-Bim (51-76).
Setting [4] is: Homo sapiens, OPM-2, 16 h, read-out: OPM-2 10% FBS IC50 IP, OPM-2 cells, 10% FBS, 16 h, CellTiter-Glo.
Setting [5] is: read-out: OPM-2 10% FBS IC50 IP, OPM-2 cells, 10% FBS, 16 h, CellTiter-Glo.
[6] abbreviates: 0.1 nM Mcl-1(171-327), 0.05 nM biotin-Bim (51-76).
[7] abbreviates: Homo sapiens, OPM-2, 16 h, read-out: OPM-2 10% FBS IC50 IP, OPM-2 cells, 10% FBS, 16 h incubation.

Our source for the IC50 values is patent US10821115B2, “Compounds that inhibit Mcl-1 protein” (priority 2017, dated 2020).

By pIC50 is commonly meant the IC50 on a negative log10 scale, so that one unit is a factor of ten.

Each structure is given as a SMILES string. pIC50: −log10 of the molar value. Read-outs that look alike come from different tables or passages of the source.

recombinant human Mcl-1 (residues 171-327) / Bim interaction, sequence (Q07820 171-327): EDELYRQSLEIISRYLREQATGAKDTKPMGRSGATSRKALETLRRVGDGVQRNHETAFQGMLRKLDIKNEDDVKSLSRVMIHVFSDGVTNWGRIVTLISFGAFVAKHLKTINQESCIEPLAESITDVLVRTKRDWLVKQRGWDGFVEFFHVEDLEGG

Consider `CO[C@@]1(C#CCCN2CCOCC2)/C=C/C[C@H](C)[C@@H](C)S(=O)(=O)NC(=O)c2ccc3c(c2)N(C[C@@H]2CC[C@H]21)C[C@@]1(CCCc2cc(Cl)ccc21)CO3` (single isomer, unassigned) [Example 100012], for which the pIC50 is 9.56 in assay [1] (setting [3]) and 5.95 in assay [2] (setting [4]).

Turning to `Cc1ccnc(C[C@]2(O)/C=C/C[C@H](C)[C@@H](C)S(=O)(=O)NC(=O)c3ccc4c(c3)N(C[C@@H]3CC[C@H]32)C[C@@]2(CCCc3cc(Cl)ccc32)CO4)c1` [Example 100533, (1S,3′R,6′R,7′S,8′E,11′S,12′R)-6-chloro-7′-hydroxy-11′,12′-dimethyl-7′-((4-methyl-2-pyridinyl)methyl)-3,4-dihydro-2H,15′H-spiro[naphthalene-1,22′-[20]oxa[13]thia[1,14]diazatetracyclo [14.7.2.0~3,6~.0~19,24~]pentacosa[8,16,18,24]tetraen]-15′-one 13′,13′-dioxide], the pIC50 in assay [1] (setting [3]) was 8.07; in assay [2] (setting [4]) it was 5.40.

For the compound `C[C@@H]1[C@@H](C)CCC[C@@](O)(CCN2CCOCC2)[C@@H]2CC[C@H]2CN2C[C@@]3(CCCc4cc(Cl)ccc43)COc3ccc(cc32)C(=O)NS1(=O)=O` [Example 100095, (1S,3′R,6′R,7′R,11′S,12′R)-6-chloro-7′-hydroxy-11′,12′-dimethyl-7′-(2-(4-morpholinyl)ethyl)-3,4-dihydro-2H,15′H-spiro[naphthalene-1,22′-[20]oxa[13]thia[1,14]diazatetracyclo [14.7.2.0~3,6~.0~19,24~]pentacosa[16,18,24]trien]-15′-one 13′,13′-dioxide], the pIC50 in assay [1] (setting [3]) is 9.83; in assay [2] (setting [5]), 6.95.

`CON(C)C[C@]1(OC)/C=C/C[C@H](C)[C@@H](C)S(=O)(=O)NC(=O)c2ccc3c(c2)N(C[C@@H]2CC[C@H]21)C[C@@]1(CCCc2cc(Cl)ccc21)CO3` [Example 212, (1S,3′R,6′R,7′S,8′E,11′S,12′R)-6-chloro-7′-methoxy-7′-((methoxy(methyl)amino)methyl)-11′,12′-dimethyl-3,4-dihydro-2H,15′H-spiro[naphthalene-1,22′-[20]oxa[13]thia[1,14]diazatetracyclo [14.7.2.0~3,6~.0~19,24~]pentacosa[8,16,18,24]tetraen]-15′-one 13′,13′-dioxide]: the pIC50 in assay [1] (setting [6]) is 9.91; in assay [2] (setting [7]), 6.51.

`C[C@@H]1[C@@H](C)C/C=C/[C@@](CO)(OCC(F)(F)F)[C@@H]2CC[C@H]2CN2C[C@@]3(CCCc4cc(Cl)ccc43)COc3ccc(cc32)C(=O)NS1(=O)=O` (single isomer, unassigned) [Example 100604]: the pIC50 in assay [1] (setting [3]) was 9.14; in assay [2] (setting [4]), 5.39.

With `COCCOC[C@@]1(O)CCC[C@H](C)[C@@H](C)S(=O)(=O)NC(=O)c2ccc3c(c2)N(C[C@@H]2CC[C@H]21)C[C@@]1(CCCc2cc(Cl)ccc21)CO3` [Example 100193, (1S,3′R,6′R,7′R,11′S,12′R)-6-chloro-7′-hydroxy-7′-((2-methoxyethoxy)methyl)-11′,12′-dimethyl-3,4-dihydro-2H,15′H-spiro[naphthalene-1,22′-[20]oxa[13]thia[1,14]diazatetracyclo [14.7.2.0~3,6~.0~19,24~]pentacosa[16,18,24]trien]-15′-one 13′,13′-dioxide], the pIC50 in assay [1] (setting [3]) is 9.07; in assay [2] (setting [4]) it was 5.89.

For the compound `C[C@@H]1[C@@H](C)C/C=C/[C@](O)(C#N)[C@@H]2CC[C@H]2CN2C[C@@]3(CCCc4cc(Cl)ccc43)COc3ccc(cc32)C(=O)NS1(=O)=O` [Example 100237, (1S,3′R,6′R,7′R,8′E,11′S,12′R)-6-chloro-7′-hydroxy-11′,12′-dimethyl-15′-oxo-3,4-dihydro-2H-spiro[naphthalene-1,22′-[20]oxa[13]thia[1,14]diazatetracyclo [14.7.2.0~3,6~.0~19,24~]pentacosa[8,16,18,24]tetraene]-7′-carbonitrile 13′,13′-dioxide], the figures for the pIC50 in assay [1] (setting [3]) and in assay [2] (setting [4]) were 8.76 and 6.00, respectively.

With `CC[C@]1(O)/C=C/C[C@H](C)[C@@H](C)S(=O)(=O)NC(=O)c2ccc3c(c2)N(C[C@@H]2CC[C@H]21)C[C@@]1(CCCc2cc(Cl)ccc21)CO3` [Example 100207, (1S,3′R,6′R,7′S,8′E,11′S,12′R)-6-chloro-7′-ethyl-7′-hydroxy-11′,12′-dimethyl-3,4-dihydro-2H,15′H-spiro[naphthalene-1,22′-[20]oxa[13]thia[1,14]diazatetracyclo [14.7.2.0~3,6~.0~19,24~]pentacosa[8,16,18,24]tetraen]-15′-one 13′,13′-dioxide], the figures for the pIC50 in assay [1] (setting [3]) and in assay [2] (setting [4]) were 9.85 and 6.67, respectively.

`CO[C@@]1(CN2CCN(c3ccccc3)CC2)/C=C/C[C@H](C)[C@@H](C)S(=O)(=O)NC(=O)c2ccc3c(c2)N(C[C@@H]2CC[C@H]21)C[C@@]1(CCCc2cc(Cl)ccc21)CO3` [Example 251, (1S,3′R,6′R,7′S,8′E,11′S,12′R)-6-chloro-7′-methoxy-11′,12′-dimethyl-7′-((4-phenyl-1-piperazinyl)methyl)-3,4-dihydro-2H,15′H-spiro[naphthalene-1,22′-[20]oxa[13]thia[1,14]diazatetracyclo [14.7.2.0~3,6~.0~19,24~]pentacosa[8,16,18,24]tetraen]-15′-one 13′,13′-dioxide]: the pIC50 in assay [1] (setting [6]) is 8.65; in assay [2] (setting [7]) it was 5.41.

Regarding `C[C@H](C(=O)O)[C@@]1(O)/C=C/C[C@H](C)[C@@H](C)S(=O)(=O)NC(=O)c2ccc3c(c2)N(C[C@@H]2CC[C@H]21)C[C@@]1(CCCc2cc(Cl)ccc21)CO3` (single isomer, unassigned) [Example 100123], the pIC50 was 10.04 in assay [1] (setting [3]) and 5.58 in assay [2] (setting [5]).

As to `CO[C@@]1(CN2CC(N3CCS(=O)(=O)CC3)C2)/C=C/C[C@H](C)[C@@H](C)S(=O)(=O)NC(=O)c2ccc3c(c2)N(C[C@@H]2CC[C@H]21)C[C@@]1(CCCc2cc(Cl)ccc21)CO3` [Example 279, (1S,3′R,6′R,7′S,8′E,11′S,12′R)-6-chloro-7′-((3-(1,1-dioxido-4-thiomorpholinyl)-1-azetidinyl)methyl)-7′-methoxy-11′,12′-dimethyl-3,4-dihydro-2H,15′H-spiro[naphthalene-1,22′-[20]oxa[13]thia[1,14]diazatetracyclo [14.7.2.0~3,6~.0~19,24~]pentacosa[8,16,18,24]tetraen]-15′-one 13′,13′-dioxide], the pIC50 is 10.08 in assay [1] (setting [6]) and 6.34 in assay [2] (setting [7]).

As to `CO[C@@]1(CC2=NCCO2)/C=C/C[C@H](C)[C@@H](C)S(=O)(=O)NC(=O)c2ccc3c(c2)N(C[C@@H]2CC[C@H]21)C[C@@]1(CCCc2cc(Cl)ccc21)CO3` [Example 100500, (1S,3′R,6′R,7′S,8′E,11′S,12′R)-6-chloro-7′-(4,5-dihydro-1,3-oxazol-2-ylmethyl)-7′-methoxy-11′,12′-dimethyl-3,4-dihydro-2H,15′H-spiro[naphthalene-1,22′-[20]oxa[13]thia[1,14]diazatetracyclo [14.7.2.0~3,6~.0~19,24~]pentacosa[8,16,18,24]tetraen]-15′-one 13′,13′-dioxide], the pIC50 is 10.31 in assay [1] (setting [3]) and 7.15 in assay [2] (setting [4]).

Take `CO[C@@]1(CCO)/C=C/C[C@H](C)[C@@H](C)S(=O)(=O)N(C)C(=O)c2ccc3c(c2)N(C[C@@H]2CC[C@H]21)C[C@@]1(CCCc2cc(Cl)ccc21)CO3` [Example 100219, (1S,3′R,6′R,7′S,8′E,11′S,12′R)-6-chloro-7′-(2-hydroxyethyl)-7′-methoxy-11′,12′,14′-trimethyl-3,4-dihydro-2H,15′H-spiro[naphthalene-1,22′-[20]oxa[13]thia[1,14]diazatetracyclo [14.7.2.0~3,6~.0~19,24~]pentacosa[8,16,18,24]tetraen]-15′-one 13′,13′-dioxide]: the pIC50 in assay [1] (setting [3]) is 9.40; in assay [2] (setting [4]) it was 6.01.

For `CO[C@]1(CC2=NC(C)(C)CO2)/C=C/C[C@H](C)[C@@H](C)S(=O)(=O)NC(=O)c2ccc3c(c2)N(C[C@@H]2CC[C@H]21)C[C@@]1(CCCc2cc(Cl)ccc21)CO3` [Example 100380, (1S,3′R,6′R,7′R,8′E,11′S,12′R)-6-chloro-7′-((4,4-dimethyl-4,5-dihydro-1,3-oxazol-2-yl)methyl)-7′-methoxy-11′,12′-dimethyl-3,4-dihydro-2H,15′H-spiro[naphthalene-1,22′-[20]oxa[13]thia[1,14]diazatetracyclo [14.7.2.0~3,6~.0~19,24~]pentacosa[8,16,18,24]tetraen]-15′-one 13′,13′-dioxide], the pIC50 in assay [1] (setting [3]) is 9.68; in assay [2] (setting [4]), 6.86.

As to `C[C@@H]1[C@@H](C)CCC[C@@](O)(COCCN(C)C)[C@@H]2CC[C@H]2CN2C[C@@]3(CCCc4cc(Cl)ccc43)COc3ccc(cc32)C(=O)NS1(=O)=O` [Example 100194, (1S,3′R,6′R,7′S,11S,12R)-6-chloro-7′-((2-(dimethylamino)ethoxy)methyl)-7′-hydroxy-11′,12′-dimethyl-3,4-dihydro-2H,15′H-spiro[naphthalene-1,22′-[20]oxa[13]thia[1,14]diazatetracyclo [14.7.2.0~3,6~.0~19,24~]pentacosa[16,18,24]trien]-15′-one 13′,13′-dioxide], the figures for the pIC50 in assay [1] (setting [3]) and in assay [2] (setting [4]) were 9.21 and 6.21, respectively.
